# Laboratory results from paper PMC3670040, “Structure of Lipid Kinase p110β/p85β Elucidates an Unusual SH2-Domain-Mediated Inhibitory Mechanism” (Molecular Cell, 2011).
# Square brackets hold non-standard residues; d marks the D form. Ends that are not written are not given here. pY = N[C@@H](Cc1ccc(OP(=O)(O)O)cc1)C(=O)O
# System: human p110β
# Assay: Transcreener ADP formation, human p110β with icSH2 of human p85α, p85β, p55γ
# Format: biochemical
# Conditions: icSH2 from p85α, p85β or p55γ; 10 μM pY2; Figure 4A
# Procedure: Figure 4 cSH2 Is Important for p110β Inhibition In Vitro and in Cells (A) Kinase activity of human p110β and icSH2 wild-type constructs from three human regulatory subunits (p85α, p85β, and p55γ) in the absence and presence of 10 μM PDGFR pY2 (y axis as in Figure 1B). EC50s for wild-type and icSH2 tyrosine mutants, in the absence and presence of 10 μM PDGF pY2, are shown. (B) Western blots of HEK cells transiently expressing wild-type and mutant human p110β/p85α. The membrane was probed with antibodies against PKB, pPKB (pSer473), myc (p110β), FLAG (p85α), and actin. Bar graphs show mean ± SEM (n = 3) of PKB phosphorylation level normalized to wild-type p110β/p85α (WT). The position of the three mutations is mapped on the p110β/p85β structure. […]
# The lipid kinase activity was determined using the Transcreener ADP2 FP Assay (BellBrook Labs, Madison, WI) according to manufacturer‟s specifications. This non-radioactive assay measures activity by quantitating the amount of ADP formed. The ADP formed by PI3K competes with fluorescent ADP tracer for binding to an anti-ADP antibody, thereby decreasing fluorescence polarization. […]
substance,measurement,value
"ESDGG[pY]MDMSKDESID[pY]VPMLDMKGDIKYADIE [pY2, bis-phosphopeptide (PDGFR 735–767, with pY740 and pY751)]",effect of pY2 on activity of human p110β bound to icSH2,significantly stimulated the activity
